Experimental findings from US20260069571A1, “DDR1 AND DDR2 INHIBITORS FOR THE TREATEMENT OF CANCER AND FIBROTIC DISEASES” (REDX PHARMA PLC, priority 2021, published 2026) are described below.

Assay [1] concerns the target Recombinant human DDR1 (Homo sapiens (Human), UniProt Q08345). The assay can be described thus: LanthaScreen Eu Kinase Binding Assay, DDR1. As to conditions: DDR1 2.5 nM (aa440-876, GST tag), Kinase Tracer 178 5 nM; for IC50: read-out: DDR1 pIC50 (converted). The method in brief: (§1)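 GST-tagged kinase domains (DDR1 aa440-876 at 2.5 nM; DDR2 aa427-855 at 1.75 nM) were preincubated 30 min at room temperature with compound in HEPES pH 7.3 buffer. Then 1 nM Eu-anti-GST plus Tracer 178 (5 nM DDR1, 10 nM DDR2) were added; after 60 min, TR-FRET gave IC50 by four-parameter fit, ≥2 replicates.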

Assay [2] addresses Recombinant human DDR2 (Homo sapiens (Human), UniProt Q16832). Briefly: LanthaScreen Eu Kinase Binding Assay, DDR2. As to conditions: DDR2 1.75 nM (aa427-855, GST tag), Kinase Tracer 178 10 nM; for IC50: read-out: DDR2 pIC50 (converted). The method in brief: as §1

Molecules are shown by their SMILES. Where only a bound is given, the exact number is not on record here.

Chain of Recombinant human DDR2 (Q16832 427-855): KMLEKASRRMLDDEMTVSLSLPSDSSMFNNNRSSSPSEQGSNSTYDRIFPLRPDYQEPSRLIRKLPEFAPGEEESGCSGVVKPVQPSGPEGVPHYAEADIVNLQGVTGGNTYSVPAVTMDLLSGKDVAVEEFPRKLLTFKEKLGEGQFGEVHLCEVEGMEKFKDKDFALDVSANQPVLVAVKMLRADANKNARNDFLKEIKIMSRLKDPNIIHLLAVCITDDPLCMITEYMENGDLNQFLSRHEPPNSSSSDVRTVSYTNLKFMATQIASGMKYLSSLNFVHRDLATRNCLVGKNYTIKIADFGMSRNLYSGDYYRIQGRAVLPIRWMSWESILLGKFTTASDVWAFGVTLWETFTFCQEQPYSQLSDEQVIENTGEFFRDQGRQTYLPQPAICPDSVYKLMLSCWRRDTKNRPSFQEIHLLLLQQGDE
Chain of Recombinant human DDR1 (Q08345 other isoform, or with tags, fused parts or gaps): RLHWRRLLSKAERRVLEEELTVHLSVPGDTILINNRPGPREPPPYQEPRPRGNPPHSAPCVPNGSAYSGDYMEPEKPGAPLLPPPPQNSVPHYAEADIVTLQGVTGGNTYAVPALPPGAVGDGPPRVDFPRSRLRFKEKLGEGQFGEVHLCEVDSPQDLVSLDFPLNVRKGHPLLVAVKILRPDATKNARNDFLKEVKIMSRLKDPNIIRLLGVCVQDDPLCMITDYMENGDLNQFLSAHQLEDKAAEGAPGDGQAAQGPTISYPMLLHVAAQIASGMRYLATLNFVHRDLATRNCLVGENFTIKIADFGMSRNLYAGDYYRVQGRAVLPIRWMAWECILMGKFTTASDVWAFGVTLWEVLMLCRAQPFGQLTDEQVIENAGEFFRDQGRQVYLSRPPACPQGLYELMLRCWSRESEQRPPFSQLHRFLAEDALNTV

As to `CC(C)c1n[nH]c2cc(Nc3cccc4c3C(=O)N(CC(=O)NCC(F)(F)F)C4)ccc12` [Example 80, 2-[7-[(3-isopropyl-1H-indazol-6-yl)amino]-1-oxo-isoindolin-2-yl]-N-(2,2,2-trifluoroethyl)acetamide], the IC50 in assay [1] and in assay [2] was 100 to 1000 nM throughout.

In the case of `O=C(CN1Cc2cccc(Nc3ccc4cn[nH]c4c3)c2C1=O)NCC(F)(F)F` [Example 81, 2-[7-(1H-indazol-6-ylamino)-1-oxo-isoindolin-2-yl]-N-(2,2,2-trifluoroethyl)acetamide], the IC50 in assay [1] is 10 to 100 nM; in assay [2], 100 to 1000 nM.

Consider `N#Cc1n[nH]c2ccc(Nc3cccc4c3C(=O)N(CC(=O)N3CCC[C@H]3C(F)(F)F)C4)cc12` [Example 82, 5-[[3-oxo-2-[2-oxo-2-[(2S)-(trifluoromethyl)pyrrolidin-1-yl]ethyl]isoindolin-4-yl]amino]-1H-indazole-3-carbonitrile], for which the IC50 in assay [1] was 10 to 100 nM; in assay [2] it was no less than 1000 nM.

As for `O=C1c2c(cccc2Nc2ccc3[nH]nc(F)c3c2)CN1CC(=O)N1CCC[C@H]1C(F)(F)F` [Example 83, 7-[(3-fluoro-1H-indazol-5-yl)amino]-2-[2-oxo-2-[(2S)-(trifluoromethyl)pyrrolidin-1-yl]ethyl]isoindolin-1-one], the IC50 in assay [1] and in assay [2] was 10 to 100 nM in each case.

On to `O=C1c2c(cccc2Nc2ccc3[nH]ncc3n2)CN1CC(=O)N1CCC[C@H]1C(F)(F)F` [Example 84, 2-[2-oxo-2-[(2S)-(trifluoromethyl)pyrrolidin-1-yl]ethyl]-7-(1H-pyrazolo[4,3-b]pyridin-5-ylamino)isoindolin-1-one], for which the values for the IC50 in assay [1] and in assay [2] were 10 to 100 nM and 100 to 1000 nM, respectively.

Regarding `Cn1ncc2nc(Nc3cccc4c3C(=O)N(CC(=O)N3CCC[C@H]3C(F)(F)F)C4)ccc21` [Example 85, 7-[(1-methylpyrazolo[4,3-b]pyridin-5-yl)amino]-2-[2-oxo-2-[(2S)-(trifluoromethyl)pyrrolidin-1-yl]ethyl]isoindolin-1-one], the IC50 in assay [1] and in assay [2] was 10 to 100 nM throughout.

For `CN(c1ccc2[nH]nc(C#N)c2c1)c1cccc2c1C(=O)N(CC(=O)N1CCC[C@H]1C(F)(F)F)C2` [Example 86, 5-[methyl-[3-oxo-2-[2-oxo-2-[(2S)-(trifluoromethyl)pyrrolidin-1-yl]ethyl]isoindolin-4-yl]amino]-1H-indazole-3-carbonitrile], the IC50 in assay [1] and in assay [2] was 10 to 100 nM each time.

Regarding `CN(c1cnc2[nH]ncc2c1)c1cccc2c1C(=O)N(CC(=O)N1CCC[C@H]1C(F)(F)F)C2` [Example 88, 7-[methyl(1H-pyrazolo[3,4-b]pyridin-5-yl)amino]-2-[2-oxo-2-[(2S)-(trifluoromethyl)pyrrolidin-1-yl]ethyl]isoindolin-1-one], the IC50 in assay [1] and in assay [2] was 10 to 100 nM in each case.

Regarding `C[C@H](NC(=O)CN1Cc2cccc(N(C)c3cnc4[nH]ncc4c3)c2C1=O)C(F)(F)F` [Example 89, 2-[7-[methyl(1H-pyrazolo[3,4-b]pyridin-5-yl)amino]-1-oxo-isoindolin-2-yl]-N-[(1S)-2,2,2-trifluoro-1-methyl-ethyl]acetamide], the IC50 in assay [1] and in assay [2] was 10 to 100 nM throughout.

Consider `CN(c1cnc2[nH]ncc2c1)c1cccc2c1C(=O)N(CC(=O)NCC(F)(F)F)C2` [Example 90, 2-[7-[methyl(1H-pyrazolo[3,4-b]pyridin-5-yl)amino]-1-oxo-isoindolin-2-yl]-N-(2,2,2-trifluoroethyl)acetamide], for which the IC50 in assay [1] was 10 to 100 nM; in assay [2], 100 to 1000 nM.

For the compound `CN(c1ccc2[nH]nc(F)c2c1)c1cccc2c1C(=O)N(CC(=O)N1CCC[C@H]1C(F)(F)F)C2` [Example 92, 7-[(3-fluoro-1H-indazol-5-yl)-methyl-amino]-2-[2-oxo-2-[(2S)-(trifluoromethyl)pyrrolidin-1-yl]ethyl]isoindolin-1-one], the IC50 is 10 to 100 nM in assay [1] and 100 to 1000 nM in assay [2].

Regarding `Cn1ncc2cc(Nc3cccc4c3C(=O)N(CC(=O)NCC(F)(F)F)C4)cc(F)c21` [Example 93, 2-[7-[(7-fluoro-1-methyl-indazol-5-yl)amino]-1-oxo-isoindolin-2-yl]-N-(2,2,2-trifluoroethyl)acetamide], in assay [1], the “DDR1 pIC50” value is “A (pIC50>8)”. In assay [2], the IC50 is 10 to 100 nM.

`CN(c1ccc2c(cnn2C)c1)c1cccc2c1C(=O)N(CC(=O)N1CCC[C@H]1C(F)F)C2` [Example 95, 7-[methyl-(1-methylindazol-5-yl)amino]-2-[2-oxo-2-[(2S)-(difluoromethyl)pyrrolidin-1-yl]ethyl]isoindolin-1-one]: the IC50 in assay [1] and in assay [2] was 10 to 100 nM throughout.

For the compound `Cn1ncc2cc(Nc3cccc4c3C(=O)N(CC(=O)N3CCC[C@H]3C(F)(F)F)C4)cc(F)c21` [Example 96, 7-[(7-fluoro-1-methyl-indazol-5-yl)amino]-2-[2-oxo-2-[(2S)-(trifluoromethyl)pyrrolidin-1-yl]ethyl]isoindolin-1-one], the “DDR1 pIC50” value in assay [1] was “A (pIC50>8)”. Also, in assay [2], the “DDR2 pIC50” value is “A (pIC50>8)”.

`Cn1ncc2cc(Nc3nccc4c3C(=O)N(CC(=O)N3CCC[C@H]3C(F)(F)F)C4)ccc21` [Example 97, 4-[(1-methylindazol-5-yl)amino]-2-[2-oxo-2-[(2S)-(trifluoromethyl)pyrrolidin-1-yl]ethyl]-1H-pyrrolo[3,4-c]pyridin-3-one]: the IC50 in assay [1] is 10 to 100 nM; in assay [2], 100 to 1000 nM.

For the compound `Cn1ncc2cc(Nc3cccc4c3C(=O)N(CC(=O)Nc3cncc(C(F)(F)F)c3)C4)cnc21` [Example 99, 2-[7-[(1-methylpyrazolo[3,4-b]pyridin-5-yl)amino]-1-oxo-isoindolin-2-yl]-N-[5-(trifluoromethyl)-3-pyridyl]acetamide], the IC50 in assay [1] and in assay [2] was 10 to 100 nM each time.

Regarding `Cc1nn(C)c2ncc(Nc3cccc4c3C(=O)N(CC(=O)NCC(F)(F)F)C4)cc12` [Example 101, 2-[7-[(1,3-dimethylpyrazolo[3,4-b]pyridin-5-yl)amino]-1-oxo-isoindolin-2-yl]-N-(2,2,2-trifluoroethyl)acetamide], the “DDR1 pIC50” value in assay [1] is listed as “D (pIC50≤6)”. In assay [2], the “DDR2 pIC50” value is on record as “D (pIC50≤6)”.

`Cc1nn(C)c2ncc(Nc3cccc4c3C(=O)N(CC(=O)N3CCC[C@H]3C(F)(F)F)C4)cc12` [Example 102, 7-[(1,3-dimethylpyrazolo[3,4-b]pyridin-5-yl)amino]-2-[2-oxo-2-[(2S)-(trifluoromethyl)pyrrolidin-1-yl]ethyl]isoindolin-1-one]: the IC50 is 10 to 100 nM in assay [1] and 100 to 1000 nM in assay [2].
